Data taken from US6864275B1, “Compounds and methods for use thereof in the treatment of cancer” (UAF Technologies and Research, LLC, priority 1997, dated 2005).

Experiments:
colon tumor cells (HT29) = assay: MTT cell growth inhibition, HT29 colon tumor cells; assay type: cell-based; conditions: 3-6 days incubation, read-out: IC50 Human Colon Carcinoma
Experimental: (§1) The following cell culture tests were performed to test the toxicity of benzimidazole derivative compounds of the present invention on colon and melanoma tumor cells. The viability of the cells were tested by looking at MTT (3-[4,5-dimethylthiazol-2-yl]-2,5-diphenyltetrazolium bromide) reduction. MTT assay is a well known measure of cell viability.
(§2) The colon tumor cells (HT29) and the melanoma cells (B16 murine melanoma) were seeded (1000-2000 cells) into each well of a 96-well microtiter plate and allowed to grow. Twenty-four hours later, increasing concentrations of each benzimidazole derivative were added to the plates and the cells were allowed to incubate for 3-6 days in the presence of the drugs. MTT reagent was then added to the wells and allowed to incubate for 4 hours at 37° C., after which the formazan metabolite was solubilized with acidic isopropanol and the absorbance was read. Experimental controls included blank wells to which no cells were added (zero point of formazan absorbance) and control wells to which no drug was added (highest level of formazan absorbance). Each drug concentration was tested in duplicate and the resulting average absorbance was plotted against drug concentration using the EZ-ED50 computer program on a personal computer interfaced to the microtiter plate reader. […] The IC50 value is then derived from this equation by EZ-ED50.

Tubulin = assay: Microtubule inhibition assay (tubulin polymerization, absorbance at 350 nm); assay type: biochemical, bovine; conditions: compound at 2 μM, after 30 minutes
Experimental: The benzimidazole derivatives of this invention were evaluated for their ability to inhibit formation of microtubules, following the procedure of Luduena, R. F. and M. C. […] Microtubule polymerization was followed by performing the reaction in a cuvette and monitoring UV absorbance at 350 nm, allowing direct visualization of the time course of the polymerization.

B16 murine melanoma [1] = assay: In vivo B16 murine melanoma tumor model; parameters: species or system B6D2F1 mice; conditions: qd × 5; for T/C (%): mean survival treated/control; for # of Survivors: survived at least 60 days
Experimental: B6D2F1 mice received interperitoneally (i.p.) inocula of B16 murine melanoma brei prepared from B16 tumors growing s.c. in mice (Day 0). On Day 1, mice were randomized into groups, with 20 mice in the control group and 10 mice in each treated group (except there were 8 mice in selected groups given compound 3-13. Treatment with drugs or vehicle control was started on Day 1.
The mean survival times of all groups were calculated and results were expressed as mean survival of treated mice/mean survival of control mice (T/C)×100%. A “T/C” value of 150 means that the mice in the treated group lived 50% longer than those of the control group; this is sometimes referred to as the increase in life span, or ILS value.
Mice that survived for at least 60 days were considered to be long-term survivors, or cures, in the B16 model. The universally accepted cut-off for activity in this model, which has been used for years by the NCI, is T/C=125. Conventional use of B16 over the years has set the following levels of activity:
T/C>300, with long-term survivors=excellent, curative activity.

B16 murine melanoma [2] = assay: MTT cell growth inhibition, B16 melanoma cells; assay type: cell-based; conditions: 3-6 days incubation
Experimental: as §1, §2

| SMILES | IC50 (colon tumor cells (HT29)) [nM] | Tubulin Polymerization Inhibition, % Inhibition (Tubulin) [%] | # of Toxic Deaths (B16 murine melanoma [1]; 50 mg/kg/i.p) | Weight Change (Day 12) (B16 murine melanoma [1]; 50 mg/kg/i.p) | T/C (%) (B16 murine melanoma [1]; 50 mg/kg/i.p) | # of Survivors (B16 murine melanoma [1]; 50 mg/kg/i.p) | # of Toxic Deaths (B16 murine melanoma [1]; 100 mg/kg/i.p) | Weight Change (Day 12) (B16 murine melanoma [1]; 100 mg/kg/i.p) | T/C (%) (B16 murine melanoma [1]; 100 mg/kg/i.p) | # of Survivors (B16 murine melanoma [1]; 100 mg/kg/i.p) | IC50 (B16 murine melanoma [2]) [nM] | # of Toxic Deaths (B16 murine melanoma [1]; 10 mg/kg/i.v) | Weight Change (Day 12) (B16 murine melanoma [1]; 10 mg/kg/i.v) | T/C (%) (B16 murine melanoma [1]; 10 mg/kg/i.v) | # of Survivors (B16 murine melanoma [1]; 10 mg/kg/i.v) | # of Toxic Deaths (B16 murine melanoma [1]; 20 mg/kg/i.v) | Weight Change (Day 12) (B16 murine melanoma [1]; 20 mg/kg/i.v) | T/C (%) (B16 murine melanoma [1]; 20 mg/kg/i.v) | # of Survivors (B16 murine melanoma [1]; 20 mg/kg/i.v) | further results |
| --- | --- | --- | --- | --- | --- | --- | --- | --- | --- | --- | --- | --- | --- | --- | --- | --- | --- | --- | --- | --- |
| COC(=O)Nc1nc2ccc(C(=O)OCC(C)CC(C)(C)C)cc2[nH]1 (stereo not shown) [3-13] | 19 | 28 | 0 | +12.5% | 94 | 0 | 0 | +9.8% | 75 | 0 | 4.6 | – | – | – | – | – | – | – | – | # of Toxic Deaths (B16 murine melanoma [1]; 2.5 mg/kg/i.v): 0; Weight Change (Day 12) (B16 murine melanoma [1]; 2.5 mg/kg/i.v): +11.7%; T/C (%) (B16 murine melanoma [1]; 2.5 mg/kg/i.v): 92%; # of Survivors (B16 murine melanoma [1]; 2.5 mg/kg/i.v): 0; # of Toxic Deaths (B16 murine melanoma [1]; 5 mg/kg/i.v): 7; Weight Change (Day 12) (B16 murine melanoma [1]; 5 mg/kg/i.v): +3.6%; T/C (%) (B16 murine melanoma [1]; 5 mg/kg/i.v): 91%; # of Survivors (B16 murine melanoma [1]; 5 mg/kg/i.v): 0 |
| COC(=O)Nc1nc2ccc(C(=O)OCCCCCl)cc2[nH]1 [Cpd. No. 3-1] | 10 | 28 | 0 | +7.5% | 132 | – | 0 | +12.9% | 108 | 0 | 11 | 0 | +9.3% | 97 | 0 | 0 | +6.3% | 98 | 0 | antitumor activity level by NCI criteria (B16 murine melanoma [1]; 50 mg/kg/i.p): weak activity (T/C=125-150, weak activity) |
| CCC(C)COC(=O)c1ccc2nc(NC(=O)OC)[nH]c2c1 (stereo not shown) [3-19] | 12 | 28 | 0 | +9.6% | 119 | 0 | 0 | +10.8% | 124 | 0 | 48 | – | – | – | – | 0 | +7.8% | 106 | 0 | # of Toxic Deaths (B16 murine melanoma [1]; 40 mg/kg/i.v): 6; Weight Change (Day 12) (B16 murine melanoma [1]; 40 mg/kg/i.v): +2.5%; T/C (%) (B16 murine melanoma [1]; 40 mg/kg/i.v): 73%; # of Survivors (B16 murine melanoma [1]; 40 mg/kg/i.v): 0 |
| C=CCCOC(=O)c1ccc2nc(NC(=O)OC)[nH]c2c1 [3-6] | 7.6 | 12 | 0 | +9.4% | 119 | 0 | 0 | +8.9% | 118 | 0 | 44 | 0 | +8.7% | 107 | 0 | 0 | +6.5% | 99 | 0 | – |
